Results on 17 compounds are retold here after ChEMBL document CHEMBL1201862, “PubChem BioAssay data set” (2004).

Calls of active or inactive are those of the source.

The nature of experiment [1]: M. tuberculosis growth inhibition, HTS (AID 449762). Format: functional.
The target of experiment [2] is T1, Leucine aminopeptidase (Plasmodium falciparum 3D7, UniProt Q8IL11).
T1 sequence (Q8IL11 whole entry): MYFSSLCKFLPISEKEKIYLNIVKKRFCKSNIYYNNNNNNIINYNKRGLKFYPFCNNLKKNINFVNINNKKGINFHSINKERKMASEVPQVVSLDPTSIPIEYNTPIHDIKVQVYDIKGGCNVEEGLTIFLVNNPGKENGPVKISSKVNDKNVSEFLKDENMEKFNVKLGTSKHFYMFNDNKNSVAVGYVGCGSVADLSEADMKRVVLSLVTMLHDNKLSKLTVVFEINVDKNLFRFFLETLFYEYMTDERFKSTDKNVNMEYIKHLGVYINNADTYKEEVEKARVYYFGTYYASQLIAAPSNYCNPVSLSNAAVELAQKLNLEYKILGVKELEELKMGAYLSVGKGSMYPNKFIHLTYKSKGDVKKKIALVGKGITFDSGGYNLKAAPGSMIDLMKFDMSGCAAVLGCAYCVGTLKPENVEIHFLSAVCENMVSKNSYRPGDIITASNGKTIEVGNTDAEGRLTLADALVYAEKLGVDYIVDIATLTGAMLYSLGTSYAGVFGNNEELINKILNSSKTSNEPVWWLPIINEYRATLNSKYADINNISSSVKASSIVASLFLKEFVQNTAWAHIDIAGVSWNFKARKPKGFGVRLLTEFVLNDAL
Put plainly: P. falciparum M17LAP inhibitors, primary screen, biochemical, fluorogenic H-Leu-NHMec substrate, 1536-well (AID 1619). The format is functional.

Experiment [3] addresses Solute carrier family 12 member 2/member 5 (Homo sapiens, UniProt P55011+Q9H2X9). Put plainly: KCC2 and NKCC1 inhibition by rubidium flux, cell-based, NKCC1 counter-screen (AID 1734). Format: functional, HEK293.
Experiment [4] can be described thus: IC50 of insulin release inhibition, rat insulinoma INS-1E line, 5 mM glucose, cell-based (AID 1117331). Format: functional.
In experiment [5] the target is T2, Neuropeptide Y receptor type 2 (Homo sapiens, UniProt P49146). The experiment in a line: IC50 for human NPY-Y2 blockade – cell-based, counter-screen for NPY-Y1 antagonist project, dose response (AID 1278). The format is functional.
In experiment [6] the target is T3, Neuropeptide Y receptor type 1 (Homo sapiens, UniProt P25929). The experiment in a line: IC50 of human NPY-Y1 blockers – cell-based, dose response (AID 1277). The format is functional.
Experiment [7] can be described thus: Luminescence Cell-Based Dose Retest to Confirm Inhibitors of Cancer Stem Cells. [Related pubchem assays (depositor defined):AID2717, AID2721]. Format: functional. The conditions noted are these: Homo sapiens.
The target in experiment [8] is Vasopressin V1a receptor (Homo sapiens, UniProt P37288). The experiment in a line: Fluorescence-based cell-based high throughput dose response screening assay for agonists of the vasopressin 1 receptor (V1R). Format: functional.
Experiment [9] concerns the target Oxytocin receptor (Homo sapiens, UniProt P30559). Put plainly: Counterscreen for vasopressin 1 receptor (V1R) agonists: Fluorescence-based cell-based high throughput dose response assay for agonists of the Oxytocin Receptor (OXTR). [Related pubchem assays: 2435 (Primary screen (OXTR agonists in singlicate)), 434964 (Confirmation screen (V1R agonists in triplicate)), 434969 (Counterscreen (OXTR agonists in …. The format is functional.

Experiment [10] deals with NADPH oxidase 1 (Homo sapiens, UniProt Q9Y5S8). The experiment in a line: Late-stage luminescence-based cell-based dose response assay to identify inhibitors of NADPH oxidase 1 (NOX1): Synthesized analogs 2. The format is functional.
For experiment [11], the system named is Vero. Put plainly: mammalian cell viability reduction – secondary assay, cytotoxicity control for West Nile virus antiviral project, dose response (AID 1650). Format: functional. The conditions noted are these: Chlorocebus sabaeus.
Experiment [12] concerns INS1. The experiment in a line: INS-1E survival protection against cytokine death – cell-based, luminescence, retest, dose response (AID 449756).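 Further: cell death triggered by IL-1 beta plus TNF-alpha plus IFN-gamma mixture; protective hits raise ATP signal compared with cytokine alone wells.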 The format is functional. The conditions noted are these: Rattus norvegicus.
Experiment [13] addresses Transthyretin (Homo sapiens, UniProt P02766). Put plainly: Luminescence-based cell-based high throughput dose response assay to identify activators of Transthyretin (TTR) transcription. The format is functional.
In experiment [14] the target is T4, Sphingosine 1-phosphate receptor 1 (Homo sapiens, UniProt P21453). The experiment in a line: Late stage counterscreen assay for S1P4 antagonists: Fluorescence dose response cell-based screening assay for antagonists of the Sphingosine 1-Phosphate Receptor 1 (S1P1). [Related pubchem assays (depositor defined):AID1510, AID1524, AID1692, AID1853, AID2332, AID489009, AID489017]. Format: functional. For orientation: Counterscreens check selectivity or assay interference.

Experiment [15] has as its target Sphingosine 1-phosphate receptor 5 (Homo sapiens, UniProt Q9H228). The experiment in a line: Late stage counterscreen assay for S1P4 antagonists: Fluorescence dose response cell-based screening assay for antagonists of the Sphingosine 1-Phosphate Receptor 5 (S1P5). [Related pubchem assays (depositor defined):AID1510, AID1524, AID1692, AID1853, AID2332, AID489009, AID489017]. The format is functional.

The target of experiment [16] is T5, Sphingosine 1-phosphate receptor 2 (Homo sapiens, UniProt O95136). The experiment in a line: Late stage counterscreen assay for S1P4 antagonists: Fluorescence dose response cell-based screening assay for antagonists of the Sphingosine 1-Phosphate Receptor 2 (S1P2). [Related pubchem assays (depositor defined):AID1510, AID1524, AID1692, AID1853, AID2332, AID489009, AID489017]. The format is functional.

Experiment [17] has as its target T6, Sphingosine 1-phosphate receptor 4 (Homo sapiens, UniProt O95977).
T6 sequence (O95977 whole entry): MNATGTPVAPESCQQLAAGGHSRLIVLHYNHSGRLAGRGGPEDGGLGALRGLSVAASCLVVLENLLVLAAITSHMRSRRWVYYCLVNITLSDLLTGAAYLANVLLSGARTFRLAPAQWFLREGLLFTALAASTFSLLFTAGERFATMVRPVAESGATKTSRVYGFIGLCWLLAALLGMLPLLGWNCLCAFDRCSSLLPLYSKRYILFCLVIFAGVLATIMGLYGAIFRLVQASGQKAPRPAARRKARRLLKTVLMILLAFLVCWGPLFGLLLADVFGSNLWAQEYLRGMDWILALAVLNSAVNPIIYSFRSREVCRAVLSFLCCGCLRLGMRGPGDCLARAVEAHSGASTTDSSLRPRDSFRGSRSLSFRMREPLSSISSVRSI
The experiment in a line: Fluorescence dose response cell-based high throughput screening assay for antagonists of the Sphingosine 1-Phosphate Receptor 4 (S1P4). [Related pubchem assays: 1524 (Confirmation in triplicates.), 1510 (Primary screen.)]. Format: functional.

The target in experiment [18] is T6, Sphingosine 1-phosphate receptor 4. Put plainly: Late stage fluorescence dose response cell-based screening assay for antagonists of the Sphingosine 1-Phosphate Receptor 4 (S1P4). [Related pubchem assays: 1524 (Confirmation screen (S1P4 antagonists).), 1510 (Primary screen (S1P4 antagonists).), 1853 (Summary AID (S1P4 antagonists).), 1692 (Dose response screen (S1P4 antagonists).)]. The format is functional.

The target of experiment [19] is Sphingosine 1-phosphate receptor 3 (Homo sapiens, UniProt Q99500). The experiment in a line: Late stage counterscreen assay for S1P4 antagonists: Fluorescence dose response cell-based screening assay for antagonists of the Sphingosine 1-Phosphate Receptor 3 (S1P3). [Related pubchem assays (depositor defined):AID1510, AID1524, AID1692, AID1853, AID2332, AID489009, AID489017]. The format is functional.

The target of experiment [20] is T4, Sphingosine 1-phosphate receptor 1. Format: functional.
For experiment [21], the target named is Aryl hydrocarbon receptor (Homo sapiens, UniProt P35869). Put plainly: Luminescence-based cell-based high throughput dose response assay for activators of the Aryl Hydrocarbon Receptor (AHR). [Related pubchem assays: 2796 (Primary screen (AHR activators in singlicate)), 2845 (Confirmation screen (AHR activators in triplicate)), 434939 (Counterscreen (PXR activators in triplicate)), 2804 (Summary (AHR activators))]. Format: ADME.

Experiment [22] in a line: HEK-293T viability loss after treatment – luminescence, T-cell screen hits, cytotoxicity control for TCR NF-kB inhibitor project, dose response (AID 489026).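 Further: cells exposed to compound about 14 hours before the viability readout.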 The format is functional, cell-based.
Experiment [23] deals with T3, Neuropeptide Y receptor type 1. Format: functional.
For experiment [24], the target named is T2, Neuropeptide Y receptor type 2. The format is functional, cell-based.
A short description of experiment [25]: TB: CFU replicating Measured in Microorganism System Using Imaging - 7108-05_Inhibitor_Dose_DryPowder_Activity_Set2. Format: functional.
The nature of experiment [26]: mitochondrial function rescue without frataxin homolog – Friedreich's ataxia, plus single-dose screen, dose response (AID 1465).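 Further: yeast depleted of Yfh1p frataxin homolog grown on glycerol needing respiration; WST-1 tetrazolium dye reduction as measure of cellular dehydrogenase metabolic activity.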 Format: functional.
Experiment [27] can be described thus: viability inhibitors of stage V gametocytes – luminescence, dose response (AID 1117278).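 Further: gametocytes exposed to compound for 24 hours.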 The format is functional, cell-based.
Experiment [28] is described as follows: viability loss in human Jurkat cells – cell-based, luminescence, cytotoxicity control for P. falciparum gametocyte viability project, dose response (AID 1117277).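 Further: potency reflects loss of cellular ATP meaning fewer viable cells.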 Format: functional.
Experiment [29] addresses Peroxisome proliferator-activated receptor gamma/Nuclear receptor coactivator 3 (Homo sapiens, UniProt P37231). Format: functional.
Experiment [30] has as its target Photoreceptor-specific nuclear receptor (Homo sapiens, UniProt Q9Y5X4). Put plainly: ligands suppressing NR2E3 nuclear receptor activity – biochemical, TR-FRET, dose response (AID 463256). The format is functional.
Experiment [31] concerns the target Peroxisome proliferator-activated receptor gamma/Nuclear receptor coactivator 2 (Homo sapiens, UniProt P37231). Format: functional.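 Further: agonist potency for raising coactivator recruitment to the receptor.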
Experiment [32] addresses Peroxisome proliferator-activated receptor gamma/Nuclear receptor coactivator 1 (Homo sapiens, UniProt P37231). The format is functional.
Experiment [33] addresses Peroxisome proliferator-activated receptor gamma/Nuclear receptor corepressor 2 (Homo sapiens, UniProt P37231+Q9Y618). The experiment in a line: Counterscreen for NR2E3 inverse agonists: TR-FRET-based biochemical high throughput dose response assay to identify inverse agonists of the interaction between peroxisome proliferator-activated receptor gamma (PPARg) and nuclear receptor co-repressor 2 (NCOR2). Format: functional.

The target of experiment [34] is T5, Sphingosine 1-phosphate receptor 2. Put plainly: Dose Response Cell Based Assay for Agonists of the S1P2 Receptor of Purchased Analogues. [Related pubchem assays: 729, 843, 854, 736 ]. Format: functional.
The target in experiment [35] is Ephrin type-A receptor 4 (Mus musculus, UniProt Q03137). The experiment in a line: EphA4 ligand-binding antagonists – biochemical, colorimetric, mouse EphA4, primary screen (AID 689). The format is functional.

In general, IC50 refers to the midpoint of a concentration-inhibition curve. As a reminder, the AC50 is the concentration giving half of the maximal activity seen. The term EC50 denotes the concentration that produces a half-maximal response. What is called CC50 is the concentration at which the toxic effect on the cells reaches its halfway point.

T5 sequence (O95136 whole entry): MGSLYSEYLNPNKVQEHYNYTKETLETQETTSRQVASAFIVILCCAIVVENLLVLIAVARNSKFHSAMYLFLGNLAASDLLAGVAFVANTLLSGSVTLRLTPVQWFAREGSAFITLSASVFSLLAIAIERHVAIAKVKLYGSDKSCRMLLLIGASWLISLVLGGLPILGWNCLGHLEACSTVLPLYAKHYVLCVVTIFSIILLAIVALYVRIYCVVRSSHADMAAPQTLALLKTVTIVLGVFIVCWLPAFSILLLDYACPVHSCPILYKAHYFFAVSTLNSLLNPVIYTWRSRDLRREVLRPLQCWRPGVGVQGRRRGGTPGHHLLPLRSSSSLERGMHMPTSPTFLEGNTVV
T4 sequence (P21453 whole entry): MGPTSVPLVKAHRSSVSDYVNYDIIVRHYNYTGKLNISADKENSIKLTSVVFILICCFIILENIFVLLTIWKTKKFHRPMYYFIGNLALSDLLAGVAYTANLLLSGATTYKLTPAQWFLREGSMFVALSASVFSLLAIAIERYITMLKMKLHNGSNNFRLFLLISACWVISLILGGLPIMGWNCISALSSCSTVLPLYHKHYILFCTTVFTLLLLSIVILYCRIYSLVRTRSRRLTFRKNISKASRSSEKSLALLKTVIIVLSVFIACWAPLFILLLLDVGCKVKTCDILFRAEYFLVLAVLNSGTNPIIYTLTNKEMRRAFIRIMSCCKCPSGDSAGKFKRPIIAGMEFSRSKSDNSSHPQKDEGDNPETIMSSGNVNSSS
T3 sequence (P25929 whole entry): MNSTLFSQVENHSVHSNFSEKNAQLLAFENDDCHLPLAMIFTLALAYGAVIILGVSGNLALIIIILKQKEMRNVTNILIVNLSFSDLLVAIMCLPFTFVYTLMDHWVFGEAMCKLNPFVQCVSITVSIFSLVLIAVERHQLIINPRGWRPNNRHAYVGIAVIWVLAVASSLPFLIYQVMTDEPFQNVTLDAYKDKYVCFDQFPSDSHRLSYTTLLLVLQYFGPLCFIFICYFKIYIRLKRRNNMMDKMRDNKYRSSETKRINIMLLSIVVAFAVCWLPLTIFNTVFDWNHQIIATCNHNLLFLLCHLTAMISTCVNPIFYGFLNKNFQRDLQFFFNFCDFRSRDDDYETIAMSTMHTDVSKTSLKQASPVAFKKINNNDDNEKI
T2 sequence (P49146 whole entry): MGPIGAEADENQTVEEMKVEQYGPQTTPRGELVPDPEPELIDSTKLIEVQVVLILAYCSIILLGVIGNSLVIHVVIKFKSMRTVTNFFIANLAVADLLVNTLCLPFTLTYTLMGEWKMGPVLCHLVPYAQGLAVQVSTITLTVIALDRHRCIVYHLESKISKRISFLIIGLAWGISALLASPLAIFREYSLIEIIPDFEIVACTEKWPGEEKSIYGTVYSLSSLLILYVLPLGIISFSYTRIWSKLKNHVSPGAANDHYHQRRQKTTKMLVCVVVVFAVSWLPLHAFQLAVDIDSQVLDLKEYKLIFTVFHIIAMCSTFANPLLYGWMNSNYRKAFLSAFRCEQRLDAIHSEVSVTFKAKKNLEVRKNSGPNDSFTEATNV
Chain of Sphingosine 1-phosphate receptor 5 (Q9H228 whole entry): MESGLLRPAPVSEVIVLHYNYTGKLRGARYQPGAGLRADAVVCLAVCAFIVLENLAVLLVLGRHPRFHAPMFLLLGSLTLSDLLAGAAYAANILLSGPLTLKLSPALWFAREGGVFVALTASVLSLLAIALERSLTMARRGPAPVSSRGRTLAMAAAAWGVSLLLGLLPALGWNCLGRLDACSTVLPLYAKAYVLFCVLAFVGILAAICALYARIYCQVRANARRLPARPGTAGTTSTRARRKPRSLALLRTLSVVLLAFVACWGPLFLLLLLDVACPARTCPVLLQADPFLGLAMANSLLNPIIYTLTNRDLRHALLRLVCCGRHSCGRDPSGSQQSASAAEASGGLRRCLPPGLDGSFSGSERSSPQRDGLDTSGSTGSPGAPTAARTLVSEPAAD
Chain of Ephrin type-A receptor 4 (Q03137 whole entry): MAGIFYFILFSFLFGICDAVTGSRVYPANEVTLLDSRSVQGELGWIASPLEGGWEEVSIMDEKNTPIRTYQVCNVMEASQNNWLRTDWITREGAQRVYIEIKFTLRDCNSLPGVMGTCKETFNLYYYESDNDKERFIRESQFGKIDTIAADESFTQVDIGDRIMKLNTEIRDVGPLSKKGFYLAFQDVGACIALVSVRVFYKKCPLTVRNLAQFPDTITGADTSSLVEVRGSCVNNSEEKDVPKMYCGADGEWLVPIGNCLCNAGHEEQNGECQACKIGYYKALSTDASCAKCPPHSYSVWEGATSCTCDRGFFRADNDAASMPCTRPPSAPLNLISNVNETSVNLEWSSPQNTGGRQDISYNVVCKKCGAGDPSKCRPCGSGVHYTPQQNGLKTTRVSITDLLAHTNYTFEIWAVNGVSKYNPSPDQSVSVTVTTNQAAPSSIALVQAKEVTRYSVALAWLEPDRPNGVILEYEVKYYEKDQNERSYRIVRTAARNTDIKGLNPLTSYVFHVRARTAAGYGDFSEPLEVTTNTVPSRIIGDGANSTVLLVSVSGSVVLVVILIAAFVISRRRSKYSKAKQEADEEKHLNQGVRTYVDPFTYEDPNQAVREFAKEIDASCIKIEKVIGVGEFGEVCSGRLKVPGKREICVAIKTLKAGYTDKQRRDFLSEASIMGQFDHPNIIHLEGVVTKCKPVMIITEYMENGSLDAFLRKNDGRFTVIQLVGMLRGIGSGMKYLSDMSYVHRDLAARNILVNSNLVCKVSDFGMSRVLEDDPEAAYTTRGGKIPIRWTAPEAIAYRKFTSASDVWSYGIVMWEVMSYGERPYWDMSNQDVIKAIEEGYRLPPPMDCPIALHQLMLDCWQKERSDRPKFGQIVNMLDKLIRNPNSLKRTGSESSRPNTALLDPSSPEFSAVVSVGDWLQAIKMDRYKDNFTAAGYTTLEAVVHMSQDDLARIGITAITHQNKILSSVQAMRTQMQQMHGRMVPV
Chain of Oxytocin receptor (P30559 whole entry): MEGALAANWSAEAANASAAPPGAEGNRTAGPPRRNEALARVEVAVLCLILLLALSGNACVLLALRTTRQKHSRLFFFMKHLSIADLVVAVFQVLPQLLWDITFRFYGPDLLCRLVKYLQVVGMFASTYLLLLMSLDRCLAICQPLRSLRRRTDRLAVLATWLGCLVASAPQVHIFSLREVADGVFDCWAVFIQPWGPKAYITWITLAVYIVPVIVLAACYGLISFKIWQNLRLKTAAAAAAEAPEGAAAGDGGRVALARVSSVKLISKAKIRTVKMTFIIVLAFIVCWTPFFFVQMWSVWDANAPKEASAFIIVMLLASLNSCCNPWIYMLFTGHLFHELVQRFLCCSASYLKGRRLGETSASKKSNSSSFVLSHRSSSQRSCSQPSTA
Chain of Photoreceptor-specific nuclear receptor (Q9Y5X4 whole entry): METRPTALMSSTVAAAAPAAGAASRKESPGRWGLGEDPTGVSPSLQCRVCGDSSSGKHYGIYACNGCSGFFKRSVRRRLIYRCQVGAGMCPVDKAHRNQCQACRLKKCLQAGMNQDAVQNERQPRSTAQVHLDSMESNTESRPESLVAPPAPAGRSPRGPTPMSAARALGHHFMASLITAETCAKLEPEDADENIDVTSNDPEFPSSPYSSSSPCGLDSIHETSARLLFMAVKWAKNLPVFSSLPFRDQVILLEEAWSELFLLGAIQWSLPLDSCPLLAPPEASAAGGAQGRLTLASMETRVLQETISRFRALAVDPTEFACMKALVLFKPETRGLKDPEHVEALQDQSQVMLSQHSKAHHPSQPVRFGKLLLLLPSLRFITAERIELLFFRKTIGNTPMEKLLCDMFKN
Chain of NADPH oxidase 1 (Q9Y5S8 whole entry): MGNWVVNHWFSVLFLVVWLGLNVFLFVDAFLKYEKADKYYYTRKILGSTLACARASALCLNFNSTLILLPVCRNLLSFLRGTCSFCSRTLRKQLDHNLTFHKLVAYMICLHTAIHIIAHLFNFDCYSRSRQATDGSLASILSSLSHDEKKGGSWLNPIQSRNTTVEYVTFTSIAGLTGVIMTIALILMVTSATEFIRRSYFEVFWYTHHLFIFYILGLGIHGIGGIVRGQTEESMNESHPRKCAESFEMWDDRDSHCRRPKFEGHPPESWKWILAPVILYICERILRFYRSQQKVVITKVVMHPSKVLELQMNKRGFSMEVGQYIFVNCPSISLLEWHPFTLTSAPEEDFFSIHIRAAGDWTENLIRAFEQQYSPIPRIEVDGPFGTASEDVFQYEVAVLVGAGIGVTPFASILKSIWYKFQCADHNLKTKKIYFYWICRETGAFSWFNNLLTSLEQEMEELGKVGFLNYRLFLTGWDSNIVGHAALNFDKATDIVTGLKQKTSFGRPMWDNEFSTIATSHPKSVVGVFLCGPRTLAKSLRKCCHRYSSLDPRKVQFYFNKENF
Chain of Vasopressin V1a receptor (P37288 whole entry): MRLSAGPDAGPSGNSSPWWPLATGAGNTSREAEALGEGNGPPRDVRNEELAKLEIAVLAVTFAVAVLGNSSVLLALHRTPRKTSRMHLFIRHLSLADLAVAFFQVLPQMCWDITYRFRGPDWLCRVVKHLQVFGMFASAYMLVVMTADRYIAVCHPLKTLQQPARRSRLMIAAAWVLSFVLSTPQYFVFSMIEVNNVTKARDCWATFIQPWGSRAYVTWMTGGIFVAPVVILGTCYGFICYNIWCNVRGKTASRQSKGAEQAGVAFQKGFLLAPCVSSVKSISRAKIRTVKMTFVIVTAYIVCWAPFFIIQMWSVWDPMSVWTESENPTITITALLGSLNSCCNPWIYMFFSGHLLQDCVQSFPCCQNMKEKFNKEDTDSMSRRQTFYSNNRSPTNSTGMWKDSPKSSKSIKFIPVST

As to `CC(C)c1ccc2[nH]c(O)c(N=NC(=O)c3ccc(CSc4nncn4C)cc3)c2c1`, the 50% inhibitory concentration (IC50) in experiment [1] is > 100 µM (active).
As for `Cc1ccc(Nc2nnc(SCC(=O)c3cc4ccccc4o3)s2)cc1C`, the concentration for half-maximal inhibition (IC50) in experiment [2] was 19.8 µM (active); in [3], 640 nM (active).
As to `CN1CCN2c3ccccc3Cc3ccccc3C2C1` (stereo not given) [MIANSERIN], the IC50 in [4] was > 11.1 µM (inactive).
Take `CCOC(=O)C(/C=N/c1cc(C)nn1-c1ccc(Cl)cc1)=C(\O)OCC`: the values for the IC50 in experiment [5] and in [6] were 30.6 µM (not active) and 18.9 µM (not active), respectively.
On to `CCc1ccc(N=Nc2ccc(O)c3[nH]cnc23)cc1`, for which the AC50 in experiment [7] was 996 nM (active). The EC50 in experiment [8] and in experiment [9] was > 29.9 µM (not active) throughout.
Take `CN1c2ccc(N=[N+]=[N-])cc2Sc2cc(N=[N+]=[N-])ccc21`: the IC50 in [10] is 7.05 µM (active).
As for `CC1=NN(c2nc(-c3ccc(C)cc3)cs2)C(=O)C1N=Nc1ccc(C(N)=O)cc1` (stereo not given), the CC50 in [11] was 6.04 µM (active). The AC50 in experiment [12] is 2.53 µM (active).
For `Cc1nn(C)c(C(=O)N2CCc3ccccc32)c1Br`, the EC50 in [13] is > 167 µM (inactive).
For the compound `Cc1cc(NC(=O)/C=C/c2ccccc2)c(C(C)C)cc1O`, the IC50 was > 25 µM (inactive) in [14]; > 25 µM (inactive) in experiment [15]; > 25 µM (inactive) in experiment [16]; 852 nM (active) in [17]; 338 nM (active) in experiment [18]; > 25 µM (inactive) in experiment [19]. Besides, in experiment [20], the IC50 was > 49.8 µM (not active).
Turning to `O=C(Nc1cccc(-c2nc3cc(Cl)ccc3o2)c1)C1CCCO1` (stereo not given), in [21], the EC50 is 2.58 µM (active).
With `COC(=O)c1ccccc1NC(=O)Cn1c(-c2nonc2N)nc2ccccc21`, the IC50 in experiment [22] was > 80 µM (inactive); in experiment [23], 4.83 µM (active); in [24] it was 15 µM (not active).
Regarding `Cn1c(NC(=O)c2ccccc2)nc2c(F)cccc21`, the AbsAC90 in experiment [25] turned out to be 160.65 µM.
For the compound `CCOC(=O)/C(=C\C=C1/Sc2ccccc2N1CC)C(C)=O`, the concentration for a half-maximal effect (EC50) in [26] was > 100 µM (active).
Regarding `COc1cc(S(=O)(=O)NC2CCCCC2)c(C)cc1C`, the IC50 in experiment [27] is > 109 µM (inactive); in experiment [28], > 83.3 µM (inactive).
Consider `Cc1cccc(NC(=O)c2sc3nc(-c4ccc(F)cc4)cn3c2C)n1`, for which the 50% effective concentration (EC50) in experiment [29] was 22.5 µM (not active); in experiment [31], 12.3 µM (not active); in experiment [32], 16.8 µM (not active). The IC50 in experiment [30] is 1.17 µM (active); in [33], 1.18 µM (active).
Take `Cc1cc(C(=O)CN(C)CC(=O)N2CCCC2)c(C)n1Cc1ccccc1`: in experiment [34], the EC50 was > 30 µM (not active).
For the compound `CCn1c2ccc(Cl)cc2c2nc3ccccc3nc21`, the IC50 in [35] was 18.2 µM (active).
